Where a name gives a salt, the structure may show the parent alone.
molecular target: T1, Smoothened (SMO) (Mus musculus, UniProt P56726); test: Smoothened (SMO)/Sonic Hedgehog (SHh) Transient Transcriptional Activation Assay (Gli-luciferase reporter in C3H10T1/2 cells); type: cell-based, murine; details: 2 μM compound; transfected C3H10T1/2 cells, recombinant human SHh 250 ng/mL, 20 hours, luciferase readout; 2 µM
T1 construct: C3H10T1/2 cells (ATCC #CCL-226) were split and seeded; endogenous in cells; host or cells: C3H10T1/2 (ATCC #CCL-226)
T1 sequence (P56726 33-793): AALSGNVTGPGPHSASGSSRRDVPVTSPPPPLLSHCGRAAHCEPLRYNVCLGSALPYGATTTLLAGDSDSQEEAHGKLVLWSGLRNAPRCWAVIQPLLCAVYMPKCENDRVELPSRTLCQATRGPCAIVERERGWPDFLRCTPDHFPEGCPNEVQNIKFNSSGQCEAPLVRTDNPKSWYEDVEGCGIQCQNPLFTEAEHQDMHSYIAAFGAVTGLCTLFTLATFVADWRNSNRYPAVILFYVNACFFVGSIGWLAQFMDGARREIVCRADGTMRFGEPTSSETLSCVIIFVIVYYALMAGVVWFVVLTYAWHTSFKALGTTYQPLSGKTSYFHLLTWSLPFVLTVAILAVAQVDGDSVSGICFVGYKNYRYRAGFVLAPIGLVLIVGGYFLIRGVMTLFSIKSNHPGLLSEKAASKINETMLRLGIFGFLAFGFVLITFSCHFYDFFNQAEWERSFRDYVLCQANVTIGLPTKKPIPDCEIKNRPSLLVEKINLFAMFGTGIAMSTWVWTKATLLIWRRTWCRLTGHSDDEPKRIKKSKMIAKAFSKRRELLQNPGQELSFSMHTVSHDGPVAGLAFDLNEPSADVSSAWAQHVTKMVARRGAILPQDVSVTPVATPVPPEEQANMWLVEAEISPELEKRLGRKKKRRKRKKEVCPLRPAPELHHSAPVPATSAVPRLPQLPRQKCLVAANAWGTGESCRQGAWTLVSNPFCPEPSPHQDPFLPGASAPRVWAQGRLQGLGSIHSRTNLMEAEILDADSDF
Description: As noted above, the compounds of the invention are useful as inhibitors of SMO. • Methods for determining the in vitro activity of these compounds are described below: Smoothened (SMO)/Sonic Hedgehog (SHh) Transient Transcriptional Activation Assay
On Day 1, 2×10^6 C3H10T1/2 cells (ATCC #CCL-226) were split and seeded in 12 mL of growth medium Basal Medium Eagle (BME, Invitrogen #21010-046) supplemented with 2 mM L-glutamine (Invitrogen #25030-081), 0.1 units/mL penicillin and 0.1 μg/mL streptomycin (Invitrogen #15140-122), and 10% Fetal Bovine Serum (FBS, Invitrogen #16140-071) in a T-75 flask (Costar #3376). They were allowed to attach for 4 hours at 37° C., 5% CO2. The cells were then transfected using Fugene 6 (Roch #11 814 443 001) in the following reaction: 48 μL Fugene 6 and 745 μL Opti-MEM (Invitrogen #31985-070) were mixed and allowed to sit at room temperature for 5 minutes. 8 μg of pGL4.14/mGli(CS) DNA (10× murine Gli response elements and minimal CS promoter) and 0.5 μg of pEGFP DNA (Clontech) were added, gently mixed and incubated at room temperature for 20 minutes. This entire transfection mix was then added to the T-75 flask containing the cells. The cells were incubated at 37° C., 5% CO2 for 18-24 hours.
On Day 2, the transfected cells were trypsinized and seeded into white 96 well plates (Costar #3917) in 100 μL/well of growth medium at a concentration of 20,000 cells/well. The cells were allowed to recover for 4 hours before adding serum starvation medium Dulbecco's Modified Eagle Medium (DMEM, Invitrogen #21063-029) supplemented with 2 mM L-glutamine, 0.1 units/mL penicillin and 0.1 μg/mL streptomycin, and 0.5% Calf Serum (CS, Invitrogen #26170-043). The growth media was aspirated off, and the cells were rinsed with 100 μL of starvation media. 95 μL of starvation media was then added to each well. The cells were incubated for 20 hours at 37° C., 5% CO2.
On Day 3, cells were dosed with test compounds at a final concentration ranging from 2 μM to 2 nM. Immediately after dosing cells with compounds, recombinant human sonic hedgehog (SHh, R&D Systems #1845-SH) was add to a final concentration of 250 ng/mL. A 25 μg vial of SHh was reconstituted with 250 μL PBS/0.1% BSA to give a 100 ng/μL working stock. This working stock was then diluted 1:20 in starvation media. The transfected cells were incubated with compounds and SHh for 20 hours at 37° C., 5% CO2.
Luciferase assays were conducted on Day 4 using Dual-Glo Luciferase assay system (Promega #E2940) according to Promega's protocol. Briefly, Dual-Glo luciferase reagent was made up and 100 μL were added to each well of the 96 well plate containing media. Plates were shaken at room temperature for 10 minutes, and then read on TopCount (Perkin-Elmer). The luminescence was recorded.

| Compound | SMO CELL % INHIBITION @ 2 μM [%] |
| --- | --- |
| O=C(N[C@@H]1CN[C@H](c2nc3ccccc3[nH]2)C1)c1ccc2c(c1)OCCO2 [Example 9, N-[(3S,5S)-5-(1H-benzimidazol-2-yl)pyrrolidin-3-yl]-2,3-dihydro-1,4-benzodioxine-6-carboxamide] | 65.00 |
| O=C(N[C@@H]1CN[C@H](c2nc3ccccc3[nH]2)C1)c1ccc2c(c1)OCCO2 [Example 11, N-[(3S,5S)-5-(1H-benzimidazol-2-yl)pyrrolidin-3-yl]-2,3-dihydro-1,4-benzodioxine-6-carboxamide] | 110.10 |

same assay, conditions: C3H 10T1/2, 2 μM compound; transfected C3H10T1/2 cells, recombinant human SHh 250 ng/mL, 20 hours, luciferase readout; read-out: SMO CELL % INHIBITION @ 2 μM

| Compound | inhibition at 2 µM [%] |
| --- | --- |
| Cc1ccc2nc([C@H]3C[C@H](NC(=O)c4ccc5c(c4)OCCO5)CCN3C)[nH]c2c1 (stereo in doubt) [Example 6, 2,3-Dihydro-benzo[1,4]dioxine-6-carboxylic acid [1-methyl-2-(6-methyl-1H-benzoimidazol-2-yl)-piperidin-4-yl]-amide hydrochloride] | 105 |
| CN1CC[C@@H](NC(=O)Nc2ccc(C#N)cc2)C[C@@H]1c1nc2cc(C(F)(F)F)ccc2[nH]1 [Example 7, 1-(4-cyanophenyl)-3-{(2R,4R)-1-methyl-2-[5-(trifluoromethyl)-1H-benzimidazol-2-yl]piperidin-4-yl}urea hydrochloride] | 109 |
| CC(C)(C)OC(=O)N1C[C@@H](NC(=O)Nc2ccc(Cl)c(C(F)(F)F)c2)C[C@H]1c1nc2ccccc2[nH]1 [Example 8, tert-butyl (2S,4S)-2-(1H-benzimidazol-2-yl)-4-[({[4-chloro-3-(trifluoromethyl)phenyl]amino}carbonyl)amino]pyrrolidine-1-carboxylate] | 57.1 |
| O=C(N[C@H]1C[C@@H](c2nc3ccccc3[nH]2)N(C(=O)OCc2ccccc2)C1)c1ccc2c(c1)OCCO2 [Example 10, benzyl (2S,4S)-2-(1H-benzimidazol-2-yl)-4-[(2,3-dihydro-1,4-benzodioxin-6-ylcarbonyl)amino]pyrrolidine-1-carboxylate] | 106 |
| O=C(N[C@@H]1CCN2CCn3c(nc4ccccc43)[C@H]2C1)c1ccc2c(c1)OCCO2 [Example 12, N-[(2R,13bR)-1,3,4,6,7,13b-hexahydro-2H-pyrido[2′,1′:3,4]pyrazino[1,2-a]benzimidazol-2-yl]-2,3-dihydro-1,4-benzodioxine-6-carboxamide hydrochloride] | 64.1 |
| O=C(Nc1ccc(Cl)c(C(F)(F)F)c1)N[C@@H]1CN[C@H](c2nc3ccc(F)cc3[nH]2)C1 [Example 13, 1-[4-chloro-3-(trifluoromethyl)phenyl]-3-[(3S,5S)-5-(6-fluoro-1H-benzimidazol-2-yl)pyrrolidin-3-yl]urea] | 84.2 |
| CN1C[C@H](NC(=O)Nc2ccc(Cl)c(C(F)(F)F)c2)C[C@H]1c1nc2ccc(F)cc2[nH]1 [Example 14, 1-[4-chloro-3-(trifluoromethyl)phenyl]-3-[(3R,5S)-5-(6-fluoro-1H-benzimidazol-2-yl)-1-methylpyrrolidin-3-yl]urea] | 81.8 |
| CN1CC[C@@H](NC(=O)Nc2ccc(OC(F)(F)F)cc2)C[C@@H]1c1nc2ccccc2[nH]1 [Example 15, 1-[(2R,4R)-2-(1H-benzimidazol-2-yl)-1-methylpiperidin-4-yl]-3-[4-(trifluoromethoxy)phenyl]urea hydrochloride] | 111 |
| CN1CC[C@@H](NC(=O)Nc2ccncc2)C[C@@H]1c1nc2ccccc2[nH]1 [Example 16, 1-[(2R,4R)-2-(1H-benzimidazol-2-yl)-1-methylpiperidin-4-yl)-3-pyridin-4-ylurea hydrochloride] | 111 |
| Cc1ccc2nc([C@@H]3C[C@@H](NC(=O)Nc4ccc(Cl)c(C(F)(F)F)c4)CN3C)[nH]c2c1 [Example 17, 1-[4-chloro-3-(trifluoromethyl)phenyl]-3-[(3R,5S)-1-methyl-5-(6-methyl-1H-benzimidazol-2-yl)pyrrolidin-3-yl]urea] | 63.2 |
| CN1CC[C@@H](NC(=O)Nc2ccc(C(F)(F)F)cc2)C[C@@H]1c1nc2ccccc2[nH]1 [Example 18, 1-[(2R,4R)-2-(1H-benzimidazol-2-yl)-1-methylpiperidin-4-yl]-3-[4-(trifluoromethyl)phenyl]urea hydrochloride] | 110 |
| CN1CC[C@@H](NC(=O)Nc2ccc(C#N)cc2)C[C@@H]1c1nc2cc(C#N)ccc2[nH]1 [Example 19, 1-[(2R,4R)-2-(5-cyano-1H-benzimidazol-2-yl)-1-methylpiperidin-4-yl]-3-(4-cyanophenyl)urea hydrochloride] | 109 |
| COc1ccc2nc([C@@H]3C[C@H](NC(=O)Nc4ccc(Cl)c(C(F)(F)F)c4)CN3)[nH]c2c1 [Example 20, 1-[4-chloro-3-(trifluoromethyl)phenyl]-3-[(3S,5S)-5-(6-methoxy-1H-benzimidazol-2-yl)pyrrolidin-3-yl]urea] | 63 |
| CN1C[C@@H](NC(=O)c2ccc3c(c2)OCCO3)C[C@H]1c1nc2ccccc2[nH]1 [Example 21, N-[(3S,5S)-5-(1H-benzimidazol-2-yl)-1-methylpyrrolidin-3-yl]-2,3-dihydro-1,4-benzodioxine-6-carboxamide] | 61.8 |
| Cc1ccc2nc([C@@H]3C[C@H](NC(=O)Nc4ccc(Cl)c(C(F)(F)F)c4)CN3C)[nH]c2c1 [Example 22, 1-[4-chloro-3-(trifluoromethyl)phenyl]-3-[(3S,5S)-1-methyl-5-(6-methyl-1H-benzimidazol-2-yl)pyrrolidin-3-yl]urea] | 102 |
| Cc1ccc2nc([C@@H]3C[C@@H](NC(=O)Nc4ccc(Cl)c(C(F)(F)F)c4)CN3C(C)C)[nH]c2c1 [Example 23, 1-[4-chloro-3-(trifluoromethyl)phenyl]-3-[(3R,5S)-1-isopropyl-5-(6-methyl-1H-benzimidazol-2-yl)pyrrolidin-3-yl]urea] | 100 |
| CC(C)(C)OC(=O)N1C[C@H](NC(=O)Nc2ccc(Cl)c(C(F)(F)F)c2)C[C@H]1c1nc2ccccc2[nH]1 [Example 24, tert-butyl (2S,4R)-2-(1H-benzimidazol-2-yl)-4-[({[4-chloro-3-(trifluoromethyl)phenyl]amino}carbonyl)amino]pyrrolidine-1-carboxylate] | 63.1 |
| COc1ccc2nc([C@@H]3C[C@H](NC(=O)Nc4ccc(Cl)c(C(F)(F)F)c4)CN3C)[nH]c2c1 [Example 25, 1-[4-chloro-3-(trifluoromethyl)phenyl]-3-[(3S,5S)-5-(6-methoxy-1H-benzimidazol-2-yl)-1-methylpyrrolidin-3-yl]urea] | 105 |
| CN1CC[C@@H](NC(=O)Nc2ccc(Cl)c(C(F)(F)F)c2)C[C@@H]1c1nc2ccccc2[nH]1 [Example 26, 1-[(2R,4R)-2-(1H-benzimidazol-2-yl)-1-methylpiperidin-4-yl]-3-[4-chloro-3-(trifluoromethyl)phenyl]urea hydrochloride] | 109 |
| CN(C)c1ccc2[nH]c([C@H]3C[C@H](NC(=O)c4ccc5c(c4)OCCO5)CCN3C)nc2c1 [Example 27, N-{(2R,4R)-2-[5-(dimethylamino)-1H-benzimidazol-2-yl]-1-methylpiperidin-4-yl}-2,3-dihydro-1,4-benzodioxine-6-carboxamide hydrochloride] | 108 |
| CN1CC[C@@H](NC(=O)Nc2cc(Cl)cc(Cl)c2)C[C@@H]1c1nc2ccccc2[nH]1 [Example 28, 1-[(2R,4R)-2-(1H-benzimidazol-2-yl)-1-methylpiperidin-4-yl]-3-(3,5-dichlorophenyl)urea hydrochloride] | 108 |
| COc1ccc2[nH]c([C@H]3C[C@H](NC(=O)Nc4ccc(C#N)cc4)CCN3C)nc2c1 [Example 29, 1-(4-cyanophenyl)-3-[(2R,4R)-2-(5-methoxy-1H-benzimidazol-2-yl)-1-methylpiperidin-4-yl]urea hydrochloride] | 108 |
